By pKi is commonly meant the negative decadic logarithm of the Ki, by convention in mol/L. A high value points to a small Ki.

pKi: −log10 of the molar value.

For eight compounds, Ki results are on record in ChEMBL document CHEMBL1130009 (J Med Chem, 1997).

One experiment addresses D(3) dopamine receptor (Homo sapiens, UniProt P35462). Kind of experiment: Binding affinity on human Dopamine receptor D3 expressed in CHO cells using radioligand [3H]-YM 09151. In kind it is cell-based.
Another experiment deals with T1, D(4) dopamine receptor (Homo sapiens, UniProt P21917).
T1 sequence (P21917 whole entry): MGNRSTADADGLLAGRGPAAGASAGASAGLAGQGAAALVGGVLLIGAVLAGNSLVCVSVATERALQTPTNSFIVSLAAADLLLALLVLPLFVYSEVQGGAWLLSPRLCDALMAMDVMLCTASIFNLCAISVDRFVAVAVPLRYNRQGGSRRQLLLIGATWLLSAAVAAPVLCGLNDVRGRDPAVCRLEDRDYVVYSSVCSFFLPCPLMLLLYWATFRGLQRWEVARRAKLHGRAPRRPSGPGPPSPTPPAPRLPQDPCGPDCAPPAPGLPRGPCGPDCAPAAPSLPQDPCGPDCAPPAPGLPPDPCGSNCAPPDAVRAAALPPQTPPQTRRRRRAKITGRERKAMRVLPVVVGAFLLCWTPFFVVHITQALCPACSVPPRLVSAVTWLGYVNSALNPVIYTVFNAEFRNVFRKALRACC
Kind of experiment: Binding affinity on human Dopamine receptor D4 expressed in CHO cells using radioligand [3H]-YM 09151. The class given is cell-based.

For experiment [1], the target named is T2, 5-hydroxytryptamine receptor 1A (Homo sapiens, UniProt P08908).
T2 sequence (P08908 whole entry): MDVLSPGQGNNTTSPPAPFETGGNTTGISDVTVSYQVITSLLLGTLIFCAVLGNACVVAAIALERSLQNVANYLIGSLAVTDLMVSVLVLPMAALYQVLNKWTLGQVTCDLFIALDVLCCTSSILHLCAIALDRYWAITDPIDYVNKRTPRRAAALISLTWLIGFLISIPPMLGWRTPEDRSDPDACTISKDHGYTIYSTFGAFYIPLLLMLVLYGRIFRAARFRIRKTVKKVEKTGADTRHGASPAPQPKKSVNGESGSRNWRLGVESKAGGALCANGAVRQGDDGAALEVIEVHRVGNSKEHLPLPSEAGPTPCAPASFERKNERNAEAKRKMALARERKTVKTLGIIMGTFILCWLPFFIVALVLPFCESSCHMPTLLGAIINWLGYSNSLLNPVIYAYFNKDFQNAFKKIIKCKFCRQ
Kind of experiment: Binding affinity against 5-hydroxytryptamine 1A receptor.

Chain of D(3) dopamine receptor (P35462 whole entry): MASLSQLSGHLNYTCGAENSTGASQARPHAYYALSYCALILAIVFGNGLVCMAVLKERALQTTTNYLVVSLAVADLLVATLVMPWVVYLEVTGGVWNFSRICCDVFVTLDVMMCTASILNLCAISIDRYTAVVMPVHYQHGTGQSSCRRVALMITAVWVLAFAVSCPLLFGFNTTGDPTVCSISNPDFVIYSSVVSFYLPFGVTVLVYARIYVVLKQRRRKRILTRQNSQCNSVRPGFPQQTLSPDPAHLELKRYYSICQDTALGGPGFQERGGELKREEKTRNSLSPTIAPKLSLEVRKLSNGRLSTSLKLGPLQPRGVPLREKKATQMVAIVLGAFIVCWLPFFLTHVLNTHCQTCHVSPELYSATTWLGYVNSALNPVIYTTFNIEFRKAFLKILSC

In the case of `c1ccc(-c2nc(CN3CCN(c4ccncn4)CC3)c[nH]2)cc1`, the results for the pKi on D(3) dopamine receptor and on D(4) dopamine receptor were less than 5.10 and 5.85, respectively.

Regarding `c1ccc(-c2ncc(CN3CCN(c4ncccn4)CC3)[nH]2)cc1`, the pKi at D(3) dopamine receptor was less than 5.10; at D(4) dopamine receptor, 8.42; in experiment [1], 6.74.

Turning to `c1ccc(-c2nc(CN3CCN(c4ccccc4)CC3)c[nH]2)cc1`, the pKi is 6.71 at D(3) dopamine receptor and 8.28 on D(4) dopamine receptor.

With `c1ccc(-c2ncc(CN3CCN(c4ccncc4)CC3)[nH]2)cc1`, the pKi is less than 5.10 on D(3) dopamine receptor and less than 5.14 at D(4) dopamine receptor.

As for `c1ccc(-c2nc(CN3CCN(c4cccnc4)CC3)c[nH]2)cc1`, the pKi at D(4) dopamine receptor is 7.14.

As to `Cc1nc(-c2ccccc2)[nH]c1CN1CCN(c2ncccn2)CC1`, the pKi is 5.53 on D(3) dopamine receptor and 8.22 on D(4) dopamine receptor.

As to `c1ccc(-c2nc(CN3CCN(c4cnccn4)CC3)c[nH]2)cc1`, the pKi on D(3) dopamine receptor was less than 5.18; at D(4) dopamine receptor, 7.30.

As for `c1ccc(-c2ncc(CN3CCN(c4ccccn4)CC3)[nH]2)cc1`, the values for the pKi at D(3) dopamine receptor and on D(4) dopamine receptor were 5.82 and 8.07, respectively.
